Experimental data published in US12595246B2, “Crystalline and amorphous forms of N-(5-((4-ethylpiperazin-1-yl)methyl)pyridine-2-yl)-5-fluoro-4-(3-isopropyl-2-methyl-2H-indazol-5-yl)pyrimidin-2-amine and its salts, and preparation methods and therapeutic uses thereof” (BETA PHARMA, INC., priority 2019, dated 2026).

Assay: Dynamic vapor sorption (DVS) isotherm analysis, with XRPD before and after DVS
Assay type: physicochemical
Conditions: for change of crystalline form after DVS (XRPD): XRPD before and after DVS; for hygroscopicity rating by DVS isotherm analysis: rating in words, based on uptake at 80% RH

Compound | change of crystalline form after DVS (XRPD) | hygroscopicity by DVS isotherm analysis (uptake at 80% RH) [%] | hygroscopicity rating by DVS isotherm analysis
CCN1CCN(Cc2ccc(Nc3ncc(F)c(-c4cc(F)c5nc(C)n(C(C)C)c5c4)n3)nc2)CC1.Cc1ccc(S(=O)(=O)O)cc1 | no change of crystalline form | 1.67 | slightly hygroscopic
CCN1CCN(Cc2ccc(Nc3ncc(F)c(-c4cc(F)c5nc(C)n(C(C)C)c5c4)n3)nc2)CC1.O=S(=O)(O)O [Compound 1⋅H2SO4 (1:1; Form A)] | some change of crystalline form | 26.42 | very hygroscopic
CCN1CCN(Cc2ccc(Nc3ncc(F)c(-c4ccc5nn(C)c(C(C)C)c5c4)n3)nc2)CC1 [freebase of 1 (Form D)] | no change of crystalline form | 5.13 | hygroscopic

Now from value to molecule:

change of crystalline form after DVS (XRPD) | hygroscopicity by DVS isotherm analysis (uptake at 80% RH) [%] | hygroscopicity rating by DVS isotherm analysis | Compound
no change of crystalline form | 3.64 | hygroscopic | CCN1CCN(Cc2ccc(Nc3ncc(F)c(-c4cc(F)c5nc(C)n(C(C)C)c5c4)n3)nc2)CC1.Cl [1⋅HCl (1:1; Form A)]
some change of crystalline form | 3.16 | hygroscopic | CCN1CCN(Cc2ccc(Nc3ncc(F)c(-c4cc(F)c5nc(C)n(C(C)C)c5c4)n3)nc2)CC1.O=P(O)(O)O [Compound 1⋅H3PO4 (1:1)]
